Assay results: ChEMBL document CHEMBL1765000, “Synthesis and biological evaluation of 1-substituted-3(5)-(6-methylpyridin-2-yl)-4-(quinolin-6-yl)pyrazoles as transforming growth factor-β type 1 receptor kinase inhibitors” (Bioorg Med Chem, 2011)

Experiments:
TGF-beta receptor type-1 = target: T1, TGF-beta receptor type-1 (Homo sapiens, UniProt P36897); test: Inhibition of human recombinant GST-fused ALK5 expressed in Sf9 cells
T1 sequence (P36897 whole entry): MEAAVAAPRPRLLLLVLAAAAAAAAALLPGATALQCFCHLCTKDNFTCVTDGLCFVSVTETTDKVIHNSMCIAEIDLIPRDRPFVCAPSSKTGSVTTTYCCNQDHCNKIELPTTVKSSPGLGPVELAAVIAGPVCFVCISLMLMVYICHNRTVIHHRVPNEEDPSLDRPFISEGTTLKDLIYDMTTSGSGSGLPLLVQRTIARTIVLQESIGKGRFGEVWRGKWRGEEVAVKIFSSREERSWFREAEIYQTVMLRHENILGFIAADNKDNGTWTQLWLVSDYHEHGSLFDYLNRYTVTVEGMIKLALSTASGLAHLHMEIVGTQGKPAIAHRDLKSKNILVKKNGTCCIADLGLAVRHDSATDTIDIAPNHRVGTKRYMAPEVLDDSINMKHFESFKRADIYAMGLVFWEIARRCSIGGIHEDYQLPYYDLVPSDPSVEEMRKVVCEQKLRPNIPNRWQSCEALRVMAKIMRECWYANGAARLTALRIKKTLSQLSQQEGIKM

[1] = target: Mitogen-activated protein kinase 14 (Homo sapiens, UniProt Q16539); test: Inhibition of human recombinant p38alpha expressed in Escherichia coli using ATF2 as a substrate by radioisotopic protein kinase assay
[2] = target: T2, TGF-beta receptor type-1 (Homo sapiens) (UniProt P36897); test: Inhibition of human recombinant ALK5 activity in human HaCaT cells assessed as inhibition of TGFbeta-induced p3TP-luciferase reporter activity; type: cell-based
T2 sequence (whole entry): T1 sequence (P36897 whole entry)

Mitogen-activated protein kinase 14, sequence (Q16539 whole entry): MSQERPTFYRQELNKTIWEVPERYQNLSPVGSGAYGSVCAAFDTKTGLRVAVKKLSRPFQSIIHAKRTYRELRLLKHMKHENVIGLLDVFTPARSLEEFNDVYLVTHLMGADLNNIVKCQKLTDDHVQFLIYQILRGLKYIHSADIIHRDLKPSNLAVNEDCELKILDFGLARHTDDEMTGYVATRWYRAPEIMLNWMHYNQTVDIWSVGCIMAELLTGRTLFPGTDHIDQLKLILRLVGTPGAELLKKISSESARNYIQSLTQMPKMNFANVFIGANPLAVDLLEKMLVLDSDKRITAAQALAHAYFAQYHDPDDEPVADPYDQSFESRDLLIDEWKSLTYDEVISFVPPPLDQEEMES

Compound | IC50 (TGF-beta receptor type-1) [nM] | IC50 [1] [nM] | inhibition [2]
Cc1cccc(-c2nn(CC(=O)Nc3ccccc3)cc2-c2ccc3ncccc3c2)n1 | 207 | > 1000 | –
Cc1cccc(-c2nn(CC(=O)Nc3cccc(C(N)=O)c3)cc2-c2ccc3ncccc3c2)n1 | 75 | > 1000 | –
COc1ccnc2ccc(-c3cn(CCC(=O)Nc4cccc(C#N)c4)nc3-c3cccc(C)n3)cc12 | > 1000 | > 1000 | –
Cc1cccc(-c2nn(CC(=S)Nc3ccccc3)cc2-c2ccc3ncccc3c2)n1 | 94 | > 1000 | –
COc1ccnc2ccc(-c3cn(CC(=O)Nc4cccc(C#N)c4)nc3-c3cccc(C)n3)cc12 | > 1000 | > 1000 | –
Cc1cccc(-c2c(-c3ccc4ncccc4c3)cnn2CC(=O)Nc2cccc(C(N)=O)c2)n1 | > 1000 | > 1000 | –
COc1ccnc2ccc(-c3cnn(CC(=O)Nc4ccccc4)c3-c3cccc(C)n3)cc12 | > 1000 | > 1000 | –
COc1ccnc2ccc(-c3cnn(CC(=O)Nc4cccc(C#N)c4)c3-c3cccc(C)n3)cc12 | > 1000 | > 1000 | –

Now from value to molecule:

IC50 (TGF-beta receptor type-1) [nM] | IC50 [1] [nM] | inhibition [2] | Compound
25 | > 1000 | – | Cc1cccc(-c2nn(CCC(=O)Nc3ccccc3)cc2-c2ccc3ncccc3c2)n1
17 | 480 | – | Cc1cccc(-c2[nH]c(Cc3cccc(C(N)=O)c3)nc2-c2ccc3nccnc3c2)n1
101 | > 1000 | – | Cc1cccc(-c2nn(CCC(=O)Nc3cccc(C#N)c3)cc2-c2ccc3ncccc3c2)n1
> 1000 | > 1000 | – | COc1ccnc2ccc(-c3cn(CC(=O)Nc4ccccc4)nc3-c3cccc(C)n3)cc12
232 | 630 | – | Cc1cccc(-c2nn(CCC(=S)Nc3cccc(C#N)c3)cc2-c2ccc3ncccc3c2)n1
51 | > 1000 | – | Cc1cccc(-c2nn(CC(=S)Nc3cccc(C#N)c3)cc2-c2ccc3ncccc3c2)n1
> 1000 | > 1000 | – | Cc1cccc(-c2c(-c3ccc4ncccc4c3)cnn2CC(=O)Nc2ccccc2)n1
22 | > 1000 | Dose-dependent effect | Cc1cccc(-c2nn(CC(=O)Nc3cccc(C#N)c3)cc2-c2ccc3ncccc3c2)n1
> 1000 | > 1000 | – | Cc1cccc(-c2c(-c3ccc4ncccc4c3)cnn2CC(=O)Nc2cccc(C#N)c2)n1
88 | > 1000 | – | Cc1cccc(-c2nn(CCC(=S)Nc3ccccc3)cc2-c2ccc3ncccc3c2)n1
